pIC50, pKi: −log10 of the molar value.
target: sigma receptor; test: Sigma receptor binding, [^3 H]DTG, brain membranes (both sigma-1 and sigma-2 sites); set-up: species or system guinea pig; settings: Table 6; [^3 H]DTG
Protocol: Sigma receptor binding assays using guinea pig brain membrane homogenates and the radioligand [^3 H]DTG were conducted as described by Weber et al.. […] Briefly, frozen whole guinea-pig brains (Biotrol, Indianapolis, Ind.) were homogenized in 10 volumes (w/v) of ice-cold 320 mM sucrose using a Brinkman polytron. The homogenate was centrifuged at 1,000× g for 20 minutes at 4° C. The supernatant was centrifuged at 20,000× g for 20 minutes at 4° C. The resulting pellet was resuspended in 10 initial volumes of 50 mM Tris/HCl buffer at pH 7.4 and centrifuged at 20,000× g for 20 minutes at 4° C. The resulting pellet was resuspended in 5 initial volumes ice-cold 50 mM Tris/Hcl […], and the final volume was adjusted to yield a protein concentration of 3 mg/ml. Aliquots of 20-ml were stored at -70° C. until used, with no detectable loss of binding.
The protein concentration in the 1-ml final incubation volume was 800 ug/ml, corresponding to 32 mg of brain tissue (original wet weight) and to a tissue concentration within the linear range for specific binding. […] Incubations were terminated after 90 minutes at room temperature by addition of 4 ml of ice-cold 50 mM Tris/HCl (pH 7.4) and rapid filtration of the membrane suspension through Whatman GF/B glass-fiber filters under vacuum, using a 48-well cell harvester (Brandel). The filters were washed 2 times with 4 ml of 50 mM Tris/HCl (pH 7.4). Each filter was suspended in 10 ml Cytoscint (ICI), and radioactivity was measured by liquid scintillation spectrometry at a counting efficiency of approximately 50%. IC50 values were determined by non-linear regression analyis.
(§1) Further sigma receptor binding assays against [^3 H]DTG and 5HT-1A binding assays were conducted according to the procedure outlined in the previous examples.
Radioligand Binding. […] Briefly, membranes (P2 microsomal fraction) were diluted 1:3 with 50 mM Tris HCl (pH 7.4) and 0.4 mL was combined with 50 μL [^3 H]DTG (1-2 nM final concentration) and 50 μL of competing drug or buffer. After 90 min at room temperature, incubation was terminated by rapid filtration under vacuum through Whatman GF/B glass fiber filters using a Brandel 48-well cell harvester. Filters were washed three times with 5 mL of cold Tris HCl buffer and each filter was suspended in 5 mL of Cytoscint (ICN Biomedical). Radioactivity was measured by liquid scintillation spectrometry at a counting efficiency of 50%.

Structure (SMILES) | IC50
c1ccc(CCCCCCCNCc2ccccc2)cc1 [Compound 90, N-(7-phenylheptyl)benzylamine] | 3.95 nM
CN1CCN(CC/C=C/c2ccccc2)CC1 [Compound 103, N-(4-phenyl-3(E)-butenyl)-N'-methylpiperazine] | 75.2 nM
c1ccc(CCCCCCCNCCc2ccccc2)cc1 [Compound 91, N-(7-phenylheptyl)phenethylamine] | 4.07 nM
c1ccc(CCCNCCc2ccccc2)cc1 [Compound 87, N-(3-phenylpropyl)phenethylamine] | 21.8 nM
CNCCCCCC1CCCCC1 [Compound 127, N-methyl-5-cyclohexylpentylamine] | 10.6 nM
c1ccc(CCCCCN2CCN(Cc3ccccc3)CC2)cc1 [Compound 129, N-Benzyl-N'-(5-phenylpentyl)-piperazine] | 2.29 nM
CN1CCN(CC/C=C\c2ccccc2)CC1 [Compound 104, N-(4-phenyl-3(Z)-butenyl)-N'-methylpiperazine] | 76.2 nM
c1ccc(CCCN2CCCCC2)cc1 [Compound 140, N-(3-phenylpropyl)piperidine] | 69 nM
CN(CCCc1ccc2ccccc2c1)CCCc1ccc2ccccc2c1 [Compound 74] | 81.9 nM
CN1CCN(CCCCc2ccccc2)CC1 [Compound 106, N-(4-phenyl)-N'-methylpiperazine] | 49.8 nM

same assay, conditions: Table 7; Phenyl-(CH2)x -NH--(CH2)y -Phenyl; read-out: Ki

Structure (SMILES) | pKi
c1ccc(CCCCCCCNCc2ccccc2)cc1 [Compound 90, N-(7-phenylheptyl)benzylamine] | 8.44
c1ccc(CCCCCCCNCCc2ccccc2)cc1 [Compound 91, N-(7-phenylheptyl)phenethylamine] | 8.39
c1ccc(CCCNCCc2ccccc2)cc1 [Compound 87, N-(3-phenylpropyl)phenethylamine] | 7.72

same assay, conditions: running text, Examples 5 and 6; read-out: sigma receptor Ki

Structure (SMILES) | pKi
c1ccc(CCCNCCc2ccccc2)cc1 [Compound 87, N-(3-phenylpropyl)phenethylamine] | 7.72
CNCCCCCC1CCCCC1 [Compound 127, N-methyl-5-cyclohexylpentylamine] | 8.00

target: T1, sigma-1 binding site (Cavia porcellus, UniProt Q60492); test: biochemical; set-up: species or system guinea pig; settings: not given
T1 construct: Guinea pig whole membrane preparations (P2 microsomal fraction); from tissue; host or cells: guinea pig membranes (P2 microsomal fraction), as described by Weber et al; brain inferred from the sister test b489
T1 sequence (Q60492 whole entry): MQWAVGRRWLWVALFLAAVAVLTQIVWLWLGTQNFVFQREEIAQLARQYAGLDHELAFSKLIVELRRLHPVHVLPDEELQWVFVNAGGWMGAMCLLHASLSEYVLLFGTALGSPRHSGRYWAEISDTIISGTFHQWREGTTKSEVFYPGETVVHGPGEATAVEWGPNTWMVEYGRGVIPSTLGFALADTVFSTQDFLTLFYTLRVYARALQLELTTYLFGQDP
Protocol: [^3 H]DTG was purchased from DuPont/NEN.
The radioactivity on the filters was determined by scintillation spectrometry at an efficiency of about 50% using Cytoscint (ICN) scintillation fluid.

Structure (SMILES) | IC50 ratio of sigma-1/sigma-2 (sigma-1 selective compounds) | sigma-2/sigma-1 selectivity
c1ccc(CCCCCCCNCc2ccccc2)cc1 [Compound 90, N-(7-phenylheptyl)benzylamine] | less than 0.1 | 126
CN1CCN(CC/C=C/c2ccccc2)CC1 [Compound 103, N-(4-phenyl-3(E)-butenyl)-N'-methylpiperazine] | less than 0.1 | –
c1ccc(CCCCCCCNCCc2ccccc2)cc1 [Compound 91, N-(7-phenylheptyl)phenethylamine] | less than 0.1 | –
CN1CCN(CC/C=C\c2ccccc2)CC1 [Compound 104, N-(4-phenyl-3(Z)-butenyl)-N'-methylpiperazine] | less than 0.1 | –

same assay, conditions: Example 8

Structure (SMILES) | sigma-2/sigma-1 selectivity
CNCCCCCC1CCCCC1 [Compound 127, N-methyl-5-cyclohexylpentylamine] | 51

same assay, conditions: SIGMA-1 KI vs. 3H-P[…]

Structure (SMILES) | pKi
c1ccc(CCCCCCCNCc2ccccc2)cc1 [Compound 90, N-(7-phenylheptyl)benzylamine] | 8.64
CN1CCN(CC/C=C/c2ccccc2)CC1 [Compound 103, N-(4-phenyl-3(E)-butenyl)-N'-methylpiperazine] | 7.54
CN1CCN(CC/C=C\c2ccccc2)CC1 [Compound 104, N-(4-phenyl-3(Z)-butenyl)-N'-methylpiperazine] | 7.54

same assay, conditions: Table 10; read-out: SIGMA-1 KI vs. 3H-PENTAZOCINE MEAN

Structure (SMILES) | pKi
CCCN1CCN(c2ccccc2)CC1 [Compound 64, N-Phenyl-N'-propylpiperazine] | 7.09
c1ccc(CCCCCCCNCCc2ccccc2)cc1 [Compound 91, N-(7-phenylheptyl)phenethylamine] | 8.83
c1ccc(CCCNCCc2ccccc2)cc1 [Compound 87, N-(3-phenylpropyl)phenethylamine] | 7.95
CNCCCCCC1CCCCC1 [Compound 127, N-methyl-5-cyclohexylpentylamine] | 8.17
c1ccc(CCCCCN2CCN(Cc3ccccc3)CC2)cc1 [Compound 129, N-Benzyl-N'-(5-phenylpentyl)-piperazine] | 9.39
c1ccc(CCCN2CCCCC2)cc1 [Compound 140, N-(3-phenylpropyl)piperidine] | 7.31
CN(CCCc1ccc2ccccc2c1)CCCc1ccc2ccccc2c1 [Compound 74] | 7.52
CN1CCN(CCCCc2ccccc2)CC1 [Compound 106, N-(4-phenyl)-N'-methylpiperazine] | 7.71

same assay, conditions: Table 10; sigma-1/sigma-2

Structure (SMILES) | S1/S2 Ratio
CNCCCCCC1CCCCC1 [Compound 127, N-methyl-5-cyclohexylpentylamine] | 0.020
c1ccc(CCCCCN2CCN(Cc3ccccc3)CC2)cc1 [Compound 129, N-Benzyl-N'-(5-phenylpentyl)-piperazine] | .036
CN(CCCc1ccc2ccccc2c1)CCCc1ccc2ccccc2c1 [Compound 74] | 0.065
CN1CCN(CCCCc2ccccc2)CC1 [Compound 106, N-(4-phenyl)-N'-methylpiperazine] | 0.022

same assay, conditions: Table 14; read-out: IC50 (nM) at sigma-1

Structure (SMILES) | IC50
c1ccc(CCCNCCc2ccccc2)cc1 [Compound 87, N-(3-phenylpropyl)phenethylamine] | 11.3 nM

same assay, conditions: Table 16; read-out: Sigma-1 IC50

Structure (SMILES) | pIC50
CNCCCCCC1CCCCC1 [Compound 127, N-methyl-5-cyclohexylpentylamine] | 8.17

same assay, conditions: guinea pig, microsomes

Structure (SMILES) | S1/S2 Ratio
c1ccc(CCCCCCCNCc2ccccc2)cc1 [Compound 90, N-(7-phenylheptyl)benzylamine] | 0.060
CN1CCN(CC/C=C/c2ccccc2)CC1 [Compound 103, N-(4-phenyl-3(E)-butenyl)-N'-methylpiperazine] | 0.011
c1ccc(CCCCCCCNCCc2ccccc2)cc1 [Compound 91, N-(7-phenylheptyl)phenethylamine] | 0.044
CN1CCN(CC/C=C\c2ccccc2)CC1 [Compound 104, N-(4-phenyl-3(Z)-butenyl)-N'-methylpiperazine] | 0.022

same assay, conditions: less than about 0.1; see Table 10

Structure (SMILES) | IC50 ratio of sigma-1/sigma-2 (sigma-1 selective compounds)
CNCCCCCC1CCCCC1 [Compound 127, N-methyl-5-cyclohexylpentylamine] | less than 0.1
CN(CCCc1ccc2ccccc2c1)CCCc1ccc2ccccc2c1 [Compound 74] | less than 0.1
CN1CCN(CCCCc2ccccc2)CC1 [Compound 106, N-(4-phenyl)-N'-methylpiperazine] | less than 0.1

same assay, conditions: sigma-1 binding affinity

Structure (SMILES) | pKi
c1ccc(CCCCCCCNCCc2ccccc2)cc1 [Compound 91, N-(7-phenylheptyl)phenethylamine] | 8.82

target: T2, sigma-2 binding site (Cavia porcellus, UniProt H0V073); test: biochemical; set-up: species or system guinea pig; settings: Example 9; read-out: sigma-2 IC50
T2 construct: Guinea pig whole membrane preparations (P2 microsomal fraction); from tissue; host or cells: guinea pig membranes (P2 microsomal fraction), as described by Weber et al; brain inferred from the sister test b489
T2 sequence (H0V073 1-176): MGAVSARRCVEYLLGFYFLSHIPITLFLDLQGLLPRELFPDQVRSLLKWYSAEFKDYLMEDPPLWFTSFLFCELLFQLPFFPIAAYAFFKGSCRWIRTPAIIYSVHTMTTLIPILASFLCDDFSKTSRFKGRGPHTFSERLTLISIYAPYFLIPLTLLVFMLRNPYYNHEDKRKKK
Protocol: For the standard equilibrium assay, the mixtures were incubated for 30 min. at room temperature, then filtered and the radioactivity determined as described above.

Structure (SMILES) | pIC50
c1ccc(CCCNCCc2ccccc2)cc1 [Compound 87, N-(3-phenylpropyl)phenethylamine] | 7.05

same assay, conditions: Table 10; read-out: SIGMA-2 KI vs. 3H-DTG + PENTAZOCINE MEAN

Structure (SMILES) | pKi
CCCN1CCN(c2ccccc2)CC1 [Compound 64, N-Phenyl-N'-propylpiperazine] | 6.27
c1ccc(CCCCCCCNCc2ccccc2)cc1 [Compound 90, N-(7-phenylheptyl)benzylamine] | 7.41
CN1CCN(CC/C=C/c2ccccc2)CC1 [Compound 103, N-(4-phenyl-3(E)-butenyl)-N'-methylpiperazine] | 5.59
c1ccc(CCCCCCCNCCc2ccccc2)cc1 [Compound 91, N-(7-phenylheptyl)phenethylamine] | 7.48
c1ccc(CCCNCCc2ccccc2)cc1 [Compound 87, N-(3-phenylpropyl)phenethylamine] | 7.05
CNCCCCCC1CCCCC1 [Compound 127, N-methyl-5-cyclohexylpentylamine] | 6.46
c1ccc(CCCCCN2CCN(Cc3ccccc3)CC2)cc1 [Compound 129, N-Benzyl-N'-(5-phenylpentyl)-piperazine] | 7.95
CN1CCN(CC/C=C\c2ccccc2)CC1 [Compound 104, N-(4-phenyl-3(Z)-butenyl)-N'-methylpiperazine] | 5.88
c1ccc(CCCN2CCCCC2)cc1 [Compound 140, N-(3-phenylpropyl)piperidine] | 6.83
CN(CCCc1ccc2ccccc2c1)CCCc1ccc2ccccc2c1 [Compound 74] | 6.34
CN1CCN(CCCCc2ccccc2)CC1 [Compound 106, N-(4-phenyl)-N'-methylpiperazine] | 6.05

target: T3, 5-HT1A receptor (Rattus norvegicus, UniProt P19327); test: biochemical; format: binding; set-up: 47: 529-540 (1986); from tissue; host or cells: brain tissue, inferred from the cited method (rat frontal cortex); settings: Table 6; read-out: 5HT-1A (nM) MEAN
T3 sequence (P19327 1-422): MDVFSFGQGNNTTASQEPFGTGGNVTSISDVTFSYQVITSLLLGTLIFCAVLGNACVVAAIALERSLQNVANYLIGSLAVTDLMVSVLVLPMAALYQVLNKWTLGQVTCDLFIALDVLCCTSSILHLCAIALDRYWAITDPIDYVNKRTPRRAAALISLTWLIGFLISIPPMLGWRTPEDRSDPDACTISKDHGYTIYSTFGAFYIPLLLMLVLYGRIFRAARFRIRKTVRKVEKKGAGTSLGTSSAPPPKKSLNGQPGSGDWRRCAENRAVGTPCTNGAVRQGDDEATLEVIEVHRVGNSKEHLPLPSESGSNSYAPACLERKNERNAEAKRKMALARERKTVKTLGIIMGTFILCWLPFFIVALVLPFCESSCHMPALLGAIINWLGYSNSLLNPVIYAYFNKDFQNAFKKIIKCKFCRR
Protocol: as §1

Structure (SMILES) | IC50
CCCN1CCN(c2ccccc2)CC1 [Compound 64, N-Phenyl-N'-propylpiperazine] | 784 nM
c1ccc(CCCCCCCNCc2ccccc2)cc1 [Compound 90, N-(7-phenylheptyl)benzylamine] | 3210 nM
c1ccc(CCCCCCCNCCc2ccccc2)cc1 [Compound 91, N-(7-phenylheptyl)phenethylamine] | 732 nM
